Results reported in PubChem BioAssay (NCI).
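Where inhibition never reached the appropriate level, the endpoint shown equals the highest concentration tested. Otherwise, values were interpolated linearly from a five-concentration, 48-hour dose response in 96-well plates. The concentration for full growth arrest is given as TGI.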

System: UO-31 renal
Experiment: NCI tumour cell line growth inhibition, 48 h

SMILES | TGI [µM]
COC(=O)c1cc(C)ccc1CC(Cc1ccc(C)cc1)C(=O)OC (stereo not given) | > 100
Nc1nc(N)nc(CCCc2nc(N)nc(N)n2)n1 | > 100
COC(=O)C1(Cc2ccc3c(c2)CCC3)Cc2cc3c(cc2C1)CCC3 | > 100
Cc1cc(/N=C/c2ccc(C#N)cc2)n(-c2ccccc2)n1 | > 100
COc1cc(OCc2ccc3nc(OC)c(OC)nc3c2)cc(OC)c1OC | > 10
CCCOC(=O)NC(C)C(=O)NC(CCC(=O)NC(CCCC(N)C(=O)O)C(=O)NC(C)C(=O)O)C(=O)O (stereo not given) | > 100
COC(=O)C1(Cc2ccc3c(c2)CCC3)Cc2ccccc2C1=O (stereo not given) | 84.4

System: A498 renal
Experiment: NCI tumour cell line growth inhibition, 48 h

SMILES | TGI [µM]
COC(=O)c1cc(C)ccc1CC(Cc1ccc(C)cc1)C(=O)OC (stereo not given) | > 100
Nc1nc(N)nc(CCCc2nc(N)nc(N)n2)n1 | > 100
COC(=O)C1(Cc2ccc3c(c2)CCC3)Cc2cc3c(cc2C1)CCC3 | > 100
COc1cc(OCc2ccc3nc(OC)c(OC)nc3c2)cc(OC)c1OC | > 10
CCCOC(=O)NC(C)C(=O)NC(CCC(=O)NC(CCCC(N)C(=O)O)C(=O)NC(C)C(=O)O)C(=O)O (stereo not given) | > 100
COC(=O)C1(Cc2ccc3c(c2)CCC3)Cc2ccccc2C1=O (stereo not given) | 57.9

System: SNB-19 CNS
Experiment: NCI tumour cell line growth inhibition, 48 h

SMILES | TGI [µM]
COC(=O)c1cc(C)ccc1CC(Cc1ccc(C)cc1)C(=O)OC (stereo not given) | > 100
Nc1nc(N)nc(CCCc2nc(N)nc(N)n2)n1 | > 100
COC(=O)C1(Cc2ccc3c(c2)CCC3)Cc2cc3c(cc2C1)CCC3 | > 100
Cc1cc(/N=C/c2ccc(C#N)cc2)n(-c2ccccc2)n1 | > 100
COc1cc(OCc2ccc3nc(OC)c(OC)nc3c2)cc(OC)c1OC | > 10
CCCOC(=O)NC(C)C(=O)NC(CCC(=O)NC(CCCC(N)C(=O)O)C(=O)NC(C)C(=O)O)C(=O)O (stereo not given) | 71
COC(=O)C1(Cc2ccc3c(c2)CCC3)Cc2ccccc2C1=O (stereo not given) | > 100

System: SF-295 CNS
Experiment: NCI tumour cell line growth inhibition, 48 h

SMILES | TGI [µM]
COC(=O)c1cc(C)ccc1CC(Cc1ccc(C)cc1)C(=O)OC (stereo not given) | > 100
Nc1nc(N)nc(CCCc2nc(N)nc(N)n2)n1 | > 100
COC(=O)C1(Cc2ccc3c(c2)CCC3)Cc2cc3c(cc2C1)CCC3 | > 100
Cc1cc(/N=C/c2ccc(C#N)cc2)n(-c2ccccc2)n1 | > 100
COc1cc(OCc2ccc3nc(OC)c(OC)nc3c2)cc(OC)c1OC | > 10
CCCOC(=O)NC(C)C(=O)NC(CCC(=O)NC(CCCC(N)C(=O)O)C(=O)NC(C)C(=O)O)C(=O)O (stereo not given) | 30.9
COC(=O)C1(Cc2ccc3c(c2)CCC3)Cc2ccccc2C1=O (stereo not given) | 67.4

System: SF-268 CNS
Experiment: NCI tumour cell line growth inhibition, 48 h

SMILES | TGI [µM]
COC(=O)c1cc(C)ccc1CC(Cc1ccc(C)cc1)C(=O)OC (stereo not given) | > 35.3
Nc1nc(N)nc(CCCc2nc(N)nc(N)n2)n1 | > 100
COC(=O)C1(Cc2ccc3c(c2)CCC3)Cc2cc3c(cc2C1)CCC3 | > 100
Cc1cc(/N=C/c2ccc(C#N)cc2)n(-c2ccccc2)n1 | > 100
COc1cc(OCc2ccc3nc(OC)c(OC)nc3c2)cc(OC)c1OC | > 10
CCCOC(=O)NC(C)C(=O)NC(CCC(=O)NC(CCCC(N)C(=O)O)C(=O)NC(C)C(=O)O)C(=O)O (stereo not given) | 42.3
COC(=O)C1(Cc2ccc3c(c2)CCC3)Cc2ccccc2C1=O (stereo not given) | 70.7

System: NCI-H23 lung
Experiment: NCI tumour cell line growth inhibition, 48 h

SMILES | TGI [µM]
COC(=O)c1cc(C)ccc1CC(Cc1ccc(C)cc1)C(=O)OC (stereo not given) | > 100
Nc1nc(N)nc(CCCc2nc(N)nc(N)n2)n1 | > 100
COC(=O)C1(Cc2ccc3c(c2)CCC3)Cc2cc3c(cc2C1)CCC3 | > 100
Cc1cc(/N=C/c2ccc(C#N)cc2)n(-c2ccccc2)n1 | > 100
COc1cc(OCc2ccc3nc(OC)c(OC)nc3c2)cc(OC)c1OC | > 10
CCCOC(=O)NC(C)C(=O)NC(CCC(=O)NC(CCCC(N)C(=O)O)C(=O)NC(C)C(=O)O)C(=O)O (stereo not given) | > 100
COC(=O)C1(Cc2ccc3c(c2)CCC3)Cc2ccccc2C1=O (stereo not given) | 95.4

System: SN12C renal
Experiment: NCI tumour cell line growth inhibition, 48 h

SMILES | TGI [µM]
COC(=O)c1cc(C)ccc1CC(Cc1ccc(C)cc1)C(=O)OC (stereo not given) | > 100
Nc1nc(N)nc(CCCc2nc(N)nc(N)n2)n1 | > 100
COC(=O)C1(Cc2ccc3c(c2)CCC3)Cc2cc3c(cc2C1)CCC3 | > 100
Cc1cc(/N=C/c2ccc(C#N)cc2)n(-c2ccccc2)n1 | > 100
COc1cc(OCc2ccc3nc(OC)c(OC)nc3c2)cc(OC)c1OC | > 10
CCCOC(=O)NC(C)C(=O)NC(CCC(=O)NC(CCCC(N)C(=O)O)C(=O)NC(C)C(=O)O)C(=O)O (stereo not given) | > 100
COC(=O)C1(Cc2ccc3c(c2)CCC3)Cc2ccccc2C1=O (stereo not given) | > 100

System: SR leukemia
Experiment: NCI tumour cell line growth inhibition, 48 h

SMILES | TGI [µM]
COC(=O)c1cc(C)ccc1CC(Cc1ccc(C)cc1)C(=O)OC (stereo not given) | > 100
Nc1nc(N)nc(CCCc2nc(N)nc(N)n2)n1 | > 100
COC(=O)C1(Cc2ccc3c(c2)CCC3)Cc2cc3c(cc2C1)CCC3 | > 100
Cc1cc(/N=C/c2ccc(C#N)cc2)n(-c2ccccc2)n1 | > 100
COc1cc(OCc2ccc3nc(OC)c(OC)nc3c2)cc(OC)c1OC | > 10
CCCOC(=O)NC(C)C(=O)NC(CCC(=O)NC(CCCC(N)C(=O)O)C(=O)NC(C)C(=O)O)C(=O)O (stereo not given) | 32.4
COC(=O)C1(Cc2ccc3c(c2)CCC3)Cc2ccccc2C1=O (stereo not given) | > 100

System: DU-145 prostate
Experiment: NCI tumour cell line growth inhibition, 48 h

SMILES | TGI [µM]
COC(=O)c1cc(C)ccc1CC(Cc1ccc(C)cc1)C(=O)OC (stereo not given) | > 100
Nc1nc(N)nc(CCCc2nc(N)nc(N)n2)n1 | > 100
COC(=O)C1(Cc2ccc3c(c2)CCC3)Cc2cc3c(cc2C1)CCC3 | > 100
Cc1cc(/N=C/c2ccc(C#N)cc2)n(-c2ccccc2)n1 | > 100
COc1cc(OCc2ccc3nc(OC)c(OC)nc3c2)cc(OC)c1OC | > 10
CCCOC(=O)NC(C)C(=O)NC(CCC(=O)NC(CCCC(N)C(=O)O)C(=O)NC(C)C(=O)O)C(=O)O (stereo not given) | 65.3
COC(=O)C1(Cc2ccc3c(c2)CCC3)Cc2ccccc2C1=O (stereo not given) | 67.8

System: EKVX NSCLC
Experiment: NCI tumour cell line growth inhibition, 48 h

SMILES | TGI [µM]
COC(=O)c1cc(C)ccc1CC(Cc1ccc(C)cc1)C(=O)OC (stereo not given) | > 100
Nc1nc(N)nc(CCCc2nc(N)nc(N)n2)n1 | > 100
COC(=O)C1(Cc2ccc3c(c2)CCC3)Cc2cc3c(cc2C1)CCC3 | > 100
Cc1cc(/N=C/c2ccc(C#N)cc2)n(-c2ccccc2)n1 | > 100
COc1cc(OCc2ccc3nc(OC)c(OC)nc3c2)cc(OC)c1OC | > 10
CCCOC(=O)NC(C)C(=O)NC(CCC(=O)NC(CCCC(N)C(=O)O)C(=O)NC(C)C(=O)O)C(=O)O (stereo not given) | > 100
COC(=O)C1(Cc2ccc3c(c2)CCC3)Cc2ccccc2C1=O (stereo not given) | 73.7

System: NCI-H226 lung
Experiment: NCI tumour cell line growth inhibition, 48 h

SMILES | TGI [µM]
COC(=O)c1cc(C)ccc1CC(Cc1ccc(C)cc1)C(=O)OC (stereo not given) | > 100
Nc1nc(N)nc(CCCc2nc(N)nc(N)n2)n1 | > 100
COC(=O)C1(Cc2ccc3c(c2)CCC3)Cc2cc3c(cc2C1)CCC3 | > 100
Cc1cc(/N=C/c2ccc(C#N)cc2)n(-c2ccccc2)n1 | > 100
COc1cc(OCc2ccc3nc(OC)c(OC)nc3c2)cc(OC)c1OC | > 10
COC(=O)C1(Cc2ccc3c(c2)CCC3)Cc2ccccc2C1=O (stereo not given) | 50.5

System: HT29 colon
Experiment: NCI tumour cell line growth inhibition, 48 h

SMILES | TGI [µM]
COC(=O)c1cc(C)ccc1CC(Cc1ccc(C)cc1)C(=O)OC (stereo not given) | 80.4
Nc1nc(N)nc(CCCc2nc(N)nc(N)n2)n1 | > 100
COC(=O)C1(Cc2ccc3c(c2)CCC3)Cc2cc3c(cc2C1)CCC3 | 89.3
Cc1cc(/N=C/c2ccc(C#N)cc2)n(-c2ccccc2)n1 | > 100
COc1cc(OCc2ccc3nc(OC)c(OC)nc3c2)cc(OC)c1OC | > 10
CCCOC(=O)NC(C)C(=O)NC(CCC(=O)NC(CCCC(N)C(=O)O)C(=O)NC(C)C(=O)O)C(=O)O (stereo not given) | 38.4
COC(=O)C1(Cc2ccc3c(c2)CCC3)Cc2ccccc2C1=O (stereo not given) | 30.3

System: HL-60(TB) leukemia
Experiment: NCI tumour cell line growth inhibition, 48 h

SMILES | TGI [µM]
COC(=O)c1cc(C)ccc1CC(Cc1ccc(C)cc1)C(=O)OC (stereo not given) | > 29.1
Nc1nc(N)nc(CCCc2nc(N)nc(N)n2)n1 | > 100
COC(=O)C1(Cc2ccc3c(c2)CCC3)Cc2cc3c(cc2C1)CCC3 | 77.8
Cc1cc(/N=C/c2ccc(C#N)cc2)n(-c2ccccc2)n1 | 76.6
COc1cc(OCc2ccc3nc(OC)c(OC)nc3c2)cc(OC)c1OC | > 10
CCCOC(=O)NC(C)C(=O)NC(CCC(=O)NC(CCCC(N)C(=O)O)C(=O)NC(C)C(=O)O)C(=O)O (stereo not given) | 42.1
COC(=O)C1(Cc2ccc3c(c2)CCC3)Cc2ccccc2C1=O (stereo not given) | 32.4

System: HCC-2998 colon
Experiment: NCI tumour cell line growth inhibition, 48 h

SMILES | TGI [µM]
COC(=O)c1cc(C)ccc1CC(Cc1ccc(C)cc1)C(=O)OC (stereo not given) | > 100
COC(=O)C1(Cc2ccc3c(c2)CCC3)Cc2cc3c(cc2C1)CCC3 | 57.5
Cc1cc(/N=C/c2ccc(C#N)cc2)n(-c2ccccc2)n1 | > 100
COc1cc(OCc2ccc3nc(OC)c(OC)nc3c2)cc(OC)c1OC | > 10
CCCOC(=O)NC(C)C(=O)NC(CCC(=O)NC(CCCC(N)C(=O)O)C(=O)NC(C)C(=O)O)C(=O)O (stereo not given) | 34.8
COC(=O)C1(Cc2ccc3c(c2)CCC3)Cc2ccccc2C1=O (stereo not given) | > 100

System: NCI-H460 lung
Experiment: NCI tumour cell line growth inhibition, 48 h

SMILES | TGI [µM]
COC(=O)c1cc(C)ccc1CC(Cc1ccc(C)cc1)C(=O)OC (stereo not given) | > 100
Nc1nc(N)nc(CCCc2nc(N)nc(N)n2)n1 | > 100
COC(=O)C1(Cc2ccc3c(c2)CCC3)Cc2cc3c(cc2C1)CCC3 | > 100
Cc1cc(/N=C/c2ccc(C#N)cc2)n(-c2ccccc2)n1 | > 100
COc1cc(OCc2ccc3nc(OC)c(OC)nc3c2)cc(OC)c1OC | > 10
